Measurements reported in article PMC2648976 (Biochemistry, 2008).
Entries after “also recorded” stand apart in the source; their conditions may differ. Where a SMILES comes first, the peptide text is derived from it. The star is where a group is joined. AMC = Cc1cc(=O)oc2cc(N*)ccc12

What was measured:
WNV NS2B-NS3 protease [1] = biological target: T1, WNV NS2B-NS3 protease (West Nile virus, UniProt Q9Q6P4); assay: NS2B-NS3pro kinetic assay, cleavage of fluorophore-linked; type: biochemical; conditions: for substrate inhibition (reaction mechanism): high substrate concentrations
WNV NS2B-NS3 protease [2] = biological target: T1, WNV NS2B-NS3 protease; assay: Inhibition of NS2B-NS3pro by product-analog peptides; type: biochemical; conditions: for Kd (substrate) compared with Ki1 (inhibitor) / difference between Kd2 (substrate) and Ki2 (inhibitor): mixed inhibitor-substrate inhibition model
[3] = 200 mM Tris pH 9.0, 20% glycerol

T1 sequence (Q9Q6P4 1428-1467 limits assumed, looked up): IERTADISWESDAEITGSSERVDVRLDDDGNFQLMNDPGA
T1 sequence (Q9Q6P4 1506-1683 limits assumed, looked up): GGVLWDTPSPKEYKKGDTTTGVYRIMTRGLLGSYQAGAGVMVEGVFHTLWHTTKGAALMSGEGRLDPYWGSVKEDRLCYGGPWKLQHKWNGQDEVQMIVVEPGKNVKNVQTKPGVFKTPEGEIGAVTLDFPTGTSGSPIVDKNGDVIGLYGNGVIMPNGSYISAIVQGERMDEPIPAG

CC(=O)N[C@@H](CC(=O)O)C(=O)N[C@@H](Cc1ccccc1)C(=O)N[C@@H](C)C(=O)N[C@@H](CO)C(=O)NCC(=O)N[C@@H](CCCCN)C(=O)N[C@@H](CCCNC(=N)N)C(=O)Nc1ccc2c(C)cc(=O)oc2c1 [Ac-DFASGKR-AMC, Ac-Asp-Phe-Ala-Ser-Gly-Lys-Arg-AMC] (Ac-DFASGKR-{AMC})
substrate inhibition (reaction mechanism) (WNV NS2B-NS3 protease [1]; [3]): substrate inhibition was also observed with the longer substrate (Figure 2b), though it was observed at higher substrate concentrations compared to the tripeptide substrates; also recorded: substrate inhibition model
substrate inhibition (reaction mechanism) (WNV NS2B-NS3 protease [1]; 200 mM Tris pH 9.0, 20% glycerol, listed as Ac-Asp-Phe-Ala-Ser-Gly-Lys-Arg-AMC): demonstrated substrate inhibition

CC(=O)NCC(=O)N[C@@H](CCCNC(=N)N)C(=O)N[C@@H](CCCNC(=N)N)C(N)=O [Ac-GRR-NH2]
Kd (substrate) compared with Ki1 (inhibitor) (WNV NS2B-NS3 protease [2]): similar
difference between Kd2 (substrate) and Ki2 (inhibitor) (WNV NS2B-NS3 protease [2]): ~ 2 -fold
Ki3 (interaction with substrate-inhibited enzyme-substrate complex) (WNV NS2B-NS3 protease [2]; model with and without this interaction similar): large Ki3 which did not play a substantial role in the overall inhibition

Cc1cc(=O)oc2cc(NC(=O)[C@H](CCCNC(=N)N)NC(=O)[C@H](CCCNC(=N)N)NC(=O)CNC(=O)OC(C)(C)C)ccc12 [Boc-GRR-AMC, Boc-Gly-Arg-Arg-AMC]
NS2B-NS3pro activity against substrate (WNV NS2B-NS3 protease [1]; [3]): clearly active
relative binding (Kd) (WNV NS2B-NS3 protease [1]; Boc-GRR-AMC relative to Ac-DFASGKR-AMC): tighter binding (lower Kd)
relative extent of substrate inhibition (WNV NS2B-NS3 protease [1]; at high substrate concentrations): more pronounced with Boc-GRR-AMC than with Boc-GKR-AMC (data not shown) or Ac-DFASGKR-AMC
substrate inhibition (reaction mechanism) (WNV NS2B-NS3 protease [1]; [3]): initial reaction velocities reached a peak and then decreased with increasing substrate concentration; also recorded: substrate inhibition model
substrate inhibition (reaction mechanism) (WNV NS2B-NS3 protease [1]; 200 mM Tris pH 9.0, 20% glycerol, listed as Boc-Gly-Arg-Arg-AMC): demonstrated substrate inhibition

Ac-DFASGKR
Kd (substrate) compared with Ki1 (inhibitor) (WNV NS2B-NS3 protease [2]): very similar
difference between Kd2 (substrate) and Ki2 (inhibitor) (WNV NS2B-NS3 protease [2]): ~ 2 -fold
mechanism of inhibition (WNV NS2B-NS3 protease [2]; model discrimination analysis with Dynafit): mixed inhibitor-substrate inhibition model; also recorded: mixed non-competitive mechanism (with both competitive and uncompetitive interactions)
